In ChEMBL document CHEMBL2311319, “Discovery of novel 1,4-dihydropyridine-based PDE4 inhibitors” (Bioorg Med Chem Lett, 2013):

Experiments:
[1] = biological target: T1, 3',5'-cyclic-AMP phosphodiesterase 4B (Homo sapiens, UniProt Q07343); assay: Inhibition of recombinant PDE4B1 (unknown origin) expressed in Sf9 cells at 30 uM pre-incubated with compound for 15 mins before incubation with cAMP substrate for 1 hr
[2] = biological target: 3',5'-cyclic-AMP phosphodiesterase 4D (Homo sapiens, UniProt Q08499); assay: Inhibition of recombinant PDE4D2 (unknown origin) expressed in Sf9 cells pre-incubated with compound for 15 mins before incubation with cAMP substrate for 1 hr
[3] = test system: RAW264.7; assay: Inhibition of LPS-induced TNFalpha production in mouse RAW264.7 cells pre-incubated with compound for 30 mins before LPS challenge by ELISA; type: functional, cell-based
[4] = biological target: T1, 3',5'-cyclic-AMP phosphodiesterase 4B; assay: Inhibition of recombinant PDE4B1 (unknown origin) expressed in Sf9 cells pre-incubated with compound for 15 mins before incubation with cAMP substrate for 1 hr

3',5'-cyclic-AMP phosphodiesterase 4D, sequence (Q08499 whole entry): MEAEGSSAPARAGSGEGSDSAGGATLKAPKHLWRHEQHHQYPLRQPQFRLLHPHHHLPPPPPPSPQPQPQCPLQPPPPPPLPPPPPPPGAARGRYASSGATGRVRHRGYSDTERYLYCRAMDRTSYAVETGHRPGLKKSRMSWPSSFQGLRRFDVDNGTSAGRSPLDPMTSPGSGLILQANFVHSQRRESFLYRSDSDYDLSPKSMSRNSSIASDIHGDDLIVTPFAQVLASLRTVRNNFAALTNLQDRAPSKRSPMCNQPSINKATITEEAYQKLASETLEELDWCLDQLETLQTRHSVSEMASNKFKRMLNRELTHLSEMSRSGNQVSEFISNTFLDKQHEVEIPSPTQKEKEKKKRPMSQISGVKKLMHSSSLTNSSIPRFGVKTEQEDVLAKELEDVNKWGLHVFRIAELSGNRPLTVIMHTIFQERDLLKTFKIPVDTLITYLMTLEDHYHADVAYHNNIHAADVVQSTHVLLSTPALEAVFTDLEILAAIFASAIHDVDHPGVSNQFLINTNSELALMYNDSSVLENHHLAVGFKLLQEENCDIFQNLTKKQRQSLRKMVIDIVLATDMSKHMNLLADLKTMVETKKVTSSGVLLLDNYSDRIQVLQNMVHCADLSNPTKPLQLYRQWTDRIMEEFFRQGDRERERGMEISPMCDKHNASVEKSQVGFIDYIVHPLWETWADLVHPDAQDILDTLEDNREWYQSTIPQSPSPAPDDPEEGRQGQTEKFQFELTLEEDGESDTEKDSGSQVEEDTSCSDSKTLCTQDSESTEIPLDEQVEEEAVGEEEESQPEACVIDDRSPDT
T1 sequence (Q07343 whole entry): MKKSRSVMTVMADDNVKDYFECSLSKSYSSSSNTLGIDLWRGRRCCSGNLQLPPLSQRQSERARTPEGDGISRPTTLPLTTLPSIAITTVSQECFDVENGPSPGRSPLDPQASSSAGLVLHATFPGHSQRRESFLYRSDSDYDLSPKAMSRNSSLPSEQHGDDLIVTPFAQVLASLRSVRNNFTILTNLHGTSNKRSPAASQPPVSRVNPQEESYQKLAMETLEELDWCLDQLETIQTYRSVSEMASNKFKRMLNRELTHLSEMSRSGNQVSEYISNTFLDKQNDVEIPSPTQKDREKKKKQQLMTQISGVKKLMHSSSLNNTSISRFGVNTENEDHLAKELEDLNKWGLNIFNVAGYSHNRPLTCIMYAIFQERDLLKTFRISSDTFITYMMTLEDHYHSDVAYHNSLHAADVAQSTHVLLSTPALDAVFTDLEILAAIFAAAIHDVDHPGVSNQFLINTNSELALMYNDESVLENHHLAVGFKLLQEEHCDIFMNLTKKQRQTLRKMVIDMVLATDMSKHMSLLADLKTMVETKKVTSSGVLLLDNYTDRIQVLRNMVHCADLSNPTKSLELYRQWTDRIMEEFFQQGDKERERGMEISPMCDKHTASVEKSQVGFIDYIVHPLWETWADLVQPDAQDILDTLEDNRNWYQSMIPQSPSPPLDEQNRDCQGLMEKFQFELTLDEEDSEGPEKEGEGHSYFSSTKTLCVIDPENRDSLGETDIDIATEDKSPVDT

| SMILES | inhibition [1] [%] | further results |
| --- | --- | --- |
| CCOC(=O)C1=CN(Cc2ccccc2Cl)C=C(C(=O)OCC)C1c1ccccc1 | 33 | – |
| CCOC(=O)C1=CN(CC2CCCCC2)C=C(C(=O)OCC)C1c1ccc(Cl)cc1 | 28 | – |
| CCOC(=O)C1=CN(Cc2ccc(C(F)(F)F)cc2)C=C(C(=O)OCC)C1c1ccc(O)cc1 | 35 | – |
| CCOC(=O)C1=CN(Cc2ccc(Cl)cc2)C=C(C(=O)OCC)C1c1cccc(F)c1 | 8 | – |
| CCOC(=O)C1=CN(Cc2ccc(OC)cc2)C=C(C(=O)OCC)C1c1ccc([N+](=O)[O-])cc1 | 38 | – |
| CCOC(=O)C1=CN(Cc2ccc(OC)c(OC)c2)C=C(C(=O)OCC)C1c1c[nH]c2ccccc12 | 95 | IC50 [2]: 650 nM; IC50 [3]: 3200 nM; IC50 [4]: 540 nM |
| CCOC(=O)C1=CN(Cc2ccc(OC)c(OC)c2)C=C(C(=O)OCC)C1c1cccc([N+](=O)[O-])c1 | 88 | IC50 [2]: 2890 nM; IC50 [4]: 1570 nM |
| CCOC(=O)C1=CN(Cc2ccccc2Cl)C=C(C(=O)OCC)C1c1ccc(O)cc1 | 49 | – |
| CCOC(=O)C1=CN(Cc2ccc3c(c2)OCO3)C=C(C(=O)OCC)C1c1ccc(OC)cc1 | 42 | – |
| CCOC(=O)C1=CN(c2ccccc2)C=C(C(=O)OCC)C1c1ccc(Cl)cc1 | 30.5 | – |
| C=CCN1C=C(C(=O)OCC)C(c2ccc(O)cc2)C(C(=O)OCC)=C1 | 51.5 | – |
| CCOC(=O)C1=CN(Cc2ccc(OC)c(OC)c2)C=C(C(=O)OCC)C1Cc1ccccc1 | 79 | – |
| CCOC(=O)C1=CN(c2ccc(Cl)cc2)C=C(C(=O)OCC)C1Cc1ccccc1 | 57.5 | – |
| CCOC(=O)C1=CN(Cc2ccc(OC)c(OC)c2)C=C(C(=O)OCC)C1c1cccc2ccccc12 | 75 | – |
| CCOC(=O)C1=CN(Cc2ccc(Cl)cc2)C=C(C(=O)OCC)C1c1ccc(Cl)cc1 | 15 | – |
| CCOC(=O)C1=CN(c2ccc(Cl)cc2)C=C(C(=O)OCC)C1c1ccc(Cl)cc1 | 23 | – |
| CCOC(=O)C1=CN(Cc2ccc(OC)cc2)C=C(C(=O)OCC)C1c1ccc(Cl)cc1 | 23 | – |
| CCCCCCCCCCCCCCCCN1C=C(C(=O)OCC)C(c2ccc(OC)cc2)C(C(=O)OCC)=C1 | 17 | – |
| CCOC(=O)C1=CN(Cc2ccc(OC)c(OC)c2)C=C(C(=O)OCC)C1c1cccc(Cl)c1 | 78 | – |
| CCOC(=O)C1=CN(Cc2ccc(OC)c(OC)c2)C=C(C(=O)OCC)C1c1ccc(Cl)cc1 | 80 | IC50 [2]: 2780 nM; IC50 [4]: 3710 nM |
| CCOC(=O)C1=CN(Cc2ccc(C(F)(F)F)cc2)C=C(C(=O)OCC)C1c1ccc(OC)cc1 | 21 | – |
| CCOC(=O)C1=CN(c2ccc(OC)cc2)C=C(C(=O)OCC)C1c1ccc(Cl)cc1 | 33 | – |
| CCOC(=O)C1=CN(Cc2ccccc2OC)C=C(C(=O)OCC)C1C1CC1 | 48 | – |
| CCOC(=O)C1=CN(Cc2ccc3c(c2)OCO3)C=C(C(=O)OCC)C1c1ccc(O)cc1 | 72 | – |
| C=CCN1C=C(C(=O)OCC)C(c2ccc(Cl)cc2)C(C(=O)OCC)=C1 | 49.5 | – |
| CCOC(=O)C1=CN(Cc2ccccc2Cl)C=C(C(=O)OCC)C1c1ccc(OC)cc1 | 58 | – |
| CCOC(=O)C1=CN(Cc2ccc(OC)cc2)C=C(C(=O)OCC)C1c1cccc(F)c1 | 28 | – |
| CCCCCCCCN1C=C(C(=O)OCC)C(c2ccc(OC)cc2)C(C(=O)OCC)=C1 | 25 | – |
| CCOC(=O)C1=CN(Cc2cccc(Cl)c2)C=C(C(=O)OCC)C1Cc1ccccc1 | 31 | – |
